Results reported in ChEMBL document CHEMBL5390265, “Design, Synthesis, and Pharmacological Evaluation of Multisubstituted Pyrido[4,3-d]pyrimidine Analogues Bearing Deuterated Methylene Linkers as Potent KRASG12D Inhibitors” (J Med Chem, 2023).
The source made the active and inactive calls. The rule behind the calls is not given here.

How the values were obtained:
GTPase KRas [1] = target: T1, GTPase KRas (Homo sapiens, UniProt P01116); test: Inhibition of KRAS in human ASPC1 cells assessed as downregulation of ERK phosphorylation incubated for 3 hrs by immunoblotting analysis; assay type: cell-based; conditions: tested as the 2H-labelled form
GTPase KRas [2] = target: T1, GTPase KRas; test: Inhibition of KRAS in human ASPC1 cells assessed as downregulation of AKT phosphorylation incubated for 3 hrs by immunoblotting analysis; assay type: cell-based; conditions: tested as the 2H-labelled form
GTPase KRas [3] = target: T1, GTPase KRas; test: Inhibition of KRAS in human AGS cells assessed as downregulation of ERK phosphorylation incubated for 3 hrs by immunoblotting analysis; assay type: cell-based; conditions: tested as the 2H-labelled form
GTPase KRas [4] = target: T1, GTPase KRas; test: Inhibition of KRAS in human AGS cells assessed as downregulation of AKT phosphorylation incubated for 3 hrs by immunoblotting analysis; assay type: cell-based; conditions: tested as the 2H-labelled form
ASPC1 [5] = test: Antitumor activity against human ASPC1 cells xenografted in mouse assessed as inhibition of ERK phosphorylation level at 10 mg/kg,ip administrated twice daily for 20 consecutive days by immunoblotting analysis; assay type: functional, organism-based; conditions: tested as the 2H-labelled form
ASPC1 [6] = test: Antitumor activity against human ASPC1 cells xenografted in mouse assessed as inhibition of ERK phosphorylation level at 20 mg/kg,ip administrated twice daily for 20 consecutive days by immunoblotting analysis; assay type: functional, organism-based; conditions: tested as the 2H-labelled form
ASPC1 [7] = test: Antitumor activity against human ASPC1 cells xenografted in mouse assessed as inhibition of AKT phosphorylation level at 10 mg/kg,ip administrated twice daily for 20 consecutive days by immunoblotting analysis; assay type: functional, organism-based; conditions: tested as the 2H-labelled form
ASPC1 [8] = test: Antitumor activity against human ASPC1 cells xenografted in mouse assessed as inhibition of AKT phosphorylation level at 20 mg/kg,ip administrated twice daily for 20 consecutive days by immunoblotting analysis; assay type: functional, organism-based; conditions: tested as the 2H-labelled form
ASPC1 [9] = test: Antitumor activity against human ASPC1 cells xenografted in mouse assessed as inhibition of Ki-67 expression level at 10 mg/kg,ip administrated twice daily for 20 consecutive days by immunohistochemistry analysis; assay type: functional, organism-based; conditions: tested as the 2H-labelled form
ASPC1 [10] = test: Antitumor activity against human ASPC1 cells xenografted in mouse assessed as inhibition of Ki-67 expression level at 20 mg/kg,ip administrated twice daily for 20 consecutive days by immunohistochemistry analysis; assay type: functional, organism-based; conditions: tested as the 2H-labelled form
ASPC1 [11] = test: Antiproliferative activity against human ASPC1 cells harboring […] assessed as inhibition of cell growth incubated for 5 days by crystal violet staining analysis; assay type: functional, cell-based; conditions: Homo sapiens, ASPC1, 120 h
AGS [12] = test: Antiproliferative activity against human AGS cells harboring […] assessed as inhibition of cell growth incubated for 5 days by crystal violet staining analysis; assay type: functional, cell-based; conditions: Homo sapiens, AGS, 120 h
A549 = test: Antiproliferative activity against human A549 cells harboring […] assessed as inhibition of cell growth incubated for 5 days by crystal violet staining analysis; assay type: functional, cell-based; conditions: Homo sapiens, A549, 120 h
NCI-H1299 = test: Antiproliferative activity against human NCI-H1299 cells harboring KRAS wild type assessed as inhibition of cell growth incubated for 5 days by crystal violet staining analysis; assay type: functional, cell-based; conditions: NCI-H1299, 120 h
[13] = Inhibition of recombinant human His6-tagged KRAS4B G12D mutant incubated for 1 hr by HTRF assay
GTPase KRas [14] = target: T1, GTPase KRas; test: Inhibition of recombinant human GTP-bound KRAS wild type (1 to 169 residues) incubated for 1 hr by HTRF assay
GTPase KRas [15] = target: T1, GTPase KRas; test: Inhibition of KRAS in human ASPC1 cells assessed as downregulation of ERK phosphorylation at 0.65 nM incubated for 3 hrs by immunoblotting analysis; assay type: cell-based; conditions: tested as the 2H-labelled form
GTPase KRas [16] = target: T1, GTPase KRas; test: Inhibition of KRAS in human ASPC1 cells assessed as downregulation of AKT phosphorylation at 0.65 nM incubated for 3 hrs by immunoblotting analysis; assay type: cell-based; conditions: tested as the 2H-labelled form
GTPase KRas [17] = target: T1, GTPase KRas; test: Inhibition of KRAS in human AGS cells assessed as downregulation of ERK phosphorylation at 0.65 nM incubated for 3 hrs by immunoblotting analysis; assay type: cell-based; conditions: tested as the 2H-labelled form
GTPase KRas [18] = target: T1, GTPase KRas; test: Inhibition of KRAS in human AGS cells assessed as downregulation of AKT phosphorylation at 0.65 nM incubated for 3 hrs by immunoblotting analysis; assay type: cell-based; conditions: tested as the 2H-labelled form
GTPase KRas [19] = target: T1, GTPase KRas; test: Inhibition of KRAS in human ASPC1 cells assessed as downregulation of ERK phosphorylation at 6.25 to 100 nM incubated for 3 hrs by immunoblotting analysis; assay type: cell-based; conditions: dose 6.25-100 nM, tested as the 2H-labelled form
[20] = Half life in Sprague-Dawley rat at 1 mg/kg,iv measured upto 24 hrs by LC-MS/MS analysis; assay type: ADME, organism-based; conditions: in vivo
[21] = AUC in Sprague-Dawley rat at 1 mg/kg,iv measured upto 24 hrs by LC-MS/MS analysis; assay type: ADME, organism-based; set-up: dose 1 mg/kg, time < 24 hrs, route iv; conditions: in vivo
[22] = Clearance in Sprague-Dawley rat at 1 mg/kg,iv measured upto 24 hrs by LC-MS/MS analysis; assay type: ADME, organism-based; conditions: in vivo
[23] = Metabolic stability in rat liver microsomes assessed as half life at 150 uM measured after 60 mins in presence of NADPH by LC-MS/MS analysis; assay type: ADME, Microsome
[24] = Metabolic stability in monkey liver microsomes assessed as half life at 150 uM measured after 60 mins in presence of NADPH by LC-MS/MS analysis; assay type: ADME, Macaca mulatta, Microsome; conditions: rhesus monkey
[25] = Metabolic stability in dog liver microsomes assessed as half life at 150 uM measured after 60 mins in presence of NADPH by LC-MS/MS analysis; assay type: ADME, Canis lupus familiaris, Microsome
[26] = Metabolic stability in rat liver microsomes assessed as intrinsic clearance at 150 uM measured after 60 mins in presence of NADPH by LC-MS/MS analysis; assay type: ADME, Microsome; conditions: read-out: CLH
[27] = Metabolic stability in monkey liver microsomes assessed as intrinsic clearance at 150 uM measured after 60 mins in presence of NADPH by LC-MS/MS analysis; assay type: ADME, Macaca mulatta, Microsome; conditions: rhesus monkey, read-out: CLH
[28] = Metabolic stability in dog liver microsomes assessed as intrinsic clearance at 150 uM measured after 60 mins in presence of NADPH by LC-MS/MS analysis; assay type: ADME, Canis lupus familiaris, Microsome; conditions: read-out: CLH
ASPC1 [29] = test: Induction of apoptosis in human ASPC1 cells harboring […] assessed as early apoptotic cells at 25 uM incubated for 24 hrs by annexin V and propidium iodide staining based flow cytometry analysis (reference value: 5.22%); assay type: functional
ASPC1 [30] = test: Induction of apoptosis in human ASPC1 cells harboring […] assessed as late apoptotic cells at 25 uM incubated for 24 hrs by annexin V and propidium iodide staining based flow cytometry analysis (reference value: 6.96%); assay type: functional
AGS [31] = test: Induction of apoptosis in human AGS cells harboring […] assessed as early apoptotic cells at 25 uM incubated for 24 hrs by annexin V and propidium iodide staining based flow cytometry analysis (reference value: 4.05%); assay type: functional
AGS [32] = test: Induction of apoptosis in human AGS cells harboring […] assessed as late apoptotic cells at 25 uM incubated for 24 hrs by annexin V and propidium iodide staining based flow cytometry analysis (reference value: 7.74%); assay type: functional
ASPC1 [33] = test: Antitumor activity against human ASPC1 cells xenografted in mouse assessed as inhibition of tumor growth at 20 mg/kg,ip administrated twice daily for 20 consecutive days relative to control; assay type: functional; conditions: read-out: TGI
[34] = Toxicity in mouse xenografted with human ASPC1 cells assessed as serum creatinine level at 20 mg/kg,ip administrated twice daily for 20 consecutive days (reference value: 28.2 +/- 2.1 umol/L); assay type: organism-based; conditions: in vivo
[35] = Toxicity in mouse xenografted with human ASPC1 cells assessed as serum blood urea nitrogen level at 20 mg/kg,ip administrated twice daily for 20 consecutive days (reference value: 16.3 +/- 1.6 mmol/L); assay type: organism-based; conditions: in vivo
ASPC1 [36] = test: Antitumor activity against human ASPC1 cells xenografted in mouse assessed as inhibition of tumor growth at 10 mg/kg,ip administrated twice daily for 20 consecutive days relative to control; assay type: functional; conditions: read-out: TGI

SMILES	inhibition (GTPase KRas [1])	inhibition (GTPase KRas [2])	inhibition (GTPase KRas [3])	inhibition (GTPase KRas [4])	Activity (ASPC1 [5])	Activity (ASPC1 [6])	Activity (ASPC1 [7])	Activity (ASPC1 [8])	Activity (ASPC1 [9])	Activity (ASPC1 [10])	IC50 (ASPC1 [11])	IC50 (AGS [12])	IC50 (A549)	IC50 (NCI-H1299)	IC50 [13]	half-life [20]	AUC at 24 h [21]	clearance [22]	other results
C#Cc1c(F)ccc2cc(O)cc(-c3ncc4c(NCC5(N(C)C)CCC5)nc(OCC56CCCN5CC(=C(F)F)C6)nc4c3F)c12 (centres undefined)	Dose-Dependent Effect	Dose-Dependent Effect	Dose-Dependent Effect	Dose-Dependent Effect	Active	Active	Active	Active	Active	Active									
[2H]C([2H])(Oc1nc(N2C[C@H]3CC[C@@H](C2)N3)c2cnc(-c3cccc4ccc(F)c(C#C)c34)c(F)c2n1)C12CCCN1CC(=C(F)F)C2 (some centres undefined)											23.7 nM	22.5 nM	1090 nM	1410 nM	2.21 nM				IC50 (GTPase KRas [14]): 20.3 nM
C#Cc1c(F)ccc2cc(O)cc(-c3ncc4c(N5C[C@H]6CC[C@@H](C5)N6)nc(OCC56CCCN5CC(=C(F)F)C6)nc4c3F)c12 (some centres undefined)	Dose-Dependent Effect	Dose-Dependent Effect	Dose-Dependent Effect	Dose-Dependent Effect	Active	Active	Active	Active	Active	Active									inhibition (GTPase KRas [15]): Active; inhibition (GTPase KRas [16]): Active; inhibition (GTPase KRas [17]): Active; inhibition (GTPase KRas [18]): Active; inhibition (GTPase KRas [19]): > 90%
C#Cc1c(F)ccc2cc(O)cc(-c3ncc4c(N5C[C@H]6CC[C@@H](C5)N6)nc(OC[C@@]56CCCN5C[C@H](F)C6)nc4c3F)c12											7.9 nM	1.4 nM	> 5000 nM	> 5000 nM	1.24 nM	1.1 h	188 ng·h/mL	91.7 mL/min/kg	half-life at 150 µM [23]: 2.88 h; half-life at 150 µM [24]: 0.568 h; half-life at 150 µM [25]: 1.38 h; microsomal CLint at 150 µM [26]: 8 µL/min/mg; microsomal CLint at 150 µM [27]: 40.6 µL/min/mg; microsomal CLint at 150 µM [28]: 16.8 µL/min/mg; Activity (ASPC1 [29]): 8.65%; Activity (ASPC1 [30]): 12.1%; Activity (AGS [31]): 9.27%; Activity (AGS [32]): 10.4%; inhibition in vivo at 20 mg/kg (ASPC1 [33]): 73.3%; Activity [34]: 24.7 µmol/L; Activity [35]: 14 mmol/L
C#Cc1c(F)ccc2cc(N)cc(-c3ncc4c(N5C[C@H]6CC[C@@H](C5)N6)nc(OCC56CCCN5CC(=C(F)F)C6)nc4c3F)c12 (some centres undefined)	Dose-Dependent Effect	Dose-Dependent Effect	Dose-Dependent Effect	Dose-Dependent Effect	Active	Active	Active	Active	Active	Active									inhibition (GTPase KRas [15]): Active; inhibition (GTPase KRas [16]): Active; inhibition (GTPase KRas [17]): Active; inhibition (GTPase KRas [18]): Active; inhibition (GTPase KRas [19]): > 90%
[2H]C([2H])(Oc1nc(NCC2(N(C)C)CCC2)c2cnc(-c3cc(N)cc4ccc(F)c(C#C)c34)c(F)c2n1)C12CCCN1CC(=C(F)F)C2 (centres undefined)											28.4 nM	12 nM	700 nM	> 5000 nM		9.42 h	218 ng·h/mL	81.1 mL/min/kg	
C#Cc1c(F)ccc2cccc(-c3ncc4c(N5C[C@H]6CC[C@@H](C5)N6)nc(OCC56CCCN5CC(=C(F)F)C6)nc4c3F)c12 (some centres undefined)	Dose-Dependent Effect	Dose-Dependent Effect	Dose-Dependent Effect	Dose-Dependent Effect															
[2H]C([2H])(Oc1nc(NCC2(N(C)C)CCC2)c2cnc(-c3cc(O)cc4ccc(F)c(C#C)c34)c(F)c2n1)C12CCCN1CC(=C(F)F)C2 (centres undefined)											1.7 nM	0.6 nM	499 nM	1820 nM	1.21 nM	6.91 h	562 ng·h/mL	33.4 mL/min/kg	IC50 (GTPase KRas [14]): 18.5 nM; inhibition in vivo at 10 mg/kg (ASPC1 [36]): 54.7%; inhibition in vivo at 20 mg/kg (ASPC1 [33]): 68.4%
